Test: In vitro Li delivery through pig skin in a flow-through Li-AgCl cell (protected Li metal foil donor electrode)
Type: in vitro ADME
Settings: ICP-MS
Procedure: The glass receptor compartment was similar to one described by Phipps et al. (1988) Solid-state Ionics 28-30: 1778-1783, for ionophoretic drug delivery experiments. The receptor compartment was filled with RPMI-1640 Medium (Sigma Aldrich). The antibiotic gentamicin sulphate was added to the receptor compartment fluid to inhibit bacterial growth.
The prepared skin was stored in RPMI-1640 medium overnight before the start of the experiment. The skin was placed on the receptor chamber and kept in place and stretched out with an O-ring around the neck of the chamber. The visceral surface of the skin was in contact with the receptor fluid.
A square 1 cm×1 cm silver chloride cathode with a capacity of approximately 40 mAh was introduced into the receptor chamber through a port. A multi-channel peristaltic pump was used to create a flow of the RPMI-1640 medium through receptor compartments of several cells. […]
The donor-acceptor chamber assembly was kept in place using a clamp. […] Li content in the fluid samples taken from receptor compartment was analyzed by ICP-MS.
Over the duration of the experiment (27 hrs at a current density of 0.1 mA/cm^2 and 24 hrs at a current density of 0.2 mA/cm^2), receptor fluid samples were taken and analyzed.
The rate of Li delivery into the receptor compartment was calculated as a product of Li concentration and the flow rate of the receptor fluid.

## [Li+] [Li, lithium]
Before current passing
  initial Li content of receptor solution: ≤ 6 µg/L
Constant current 0.1 mA/cm^2 (27 hrs) and 0.2 mA/cm^2 (24 hrs), 37° C, RPMI-1640 receptor fluid, flow rate 2.1 mL/hr, FIG. 9
  Li content in receptor fluid samples: gradually increased over time and was significantly larger for the rate of 0.2 mA/cm^2 than for 0.1 mA/cm^2

From patent US20090069740A1, “PROTECTED DONOR ELECTRODES FOR ELECTRO-TRANSPORT DRUG DELIVERY” (POLYPLUS BATTERY COMPANY, priority 2007, published 2009)
